This is an account of results in patent US5688938A, “Calcium receptor-active molecules” (priority 1995, dated 1997).

Entries after “also recorded” stand apart in the source; their conditions may differ.

Series [1] concerns osteoclast calcium receptor. The series can be described thus: [Ca^2+]i (indo-1) in rat osteoclasts. The class given is cell-based.
For series [2], the system named is parathyroid cell calcium receptor. The series can be described thus: Cl^- current in Xenopus oocytes injected with (bovine) parathyroid cell mRNA. The class given is cell-based. As to conditions: fendiline 100 μM. As to the method:
Following incubation, an oocyte was placed into a 100-μl plastic chamber and superfused with MBS at a flow rate of 0.5 ml/min using a peristaltic pump. Test molecules or inorganic polycations were added by rapidly moving the tubing into different buffers. Recording and current passing electrodes were constructed from thin-wall capillary tubing pulled to a resistance of 1-3 Mohms and filled with 3M KCl. […] Currents were recorded directly onto a strip chart recorder.

A short description of series [3]: serum/blood calcium, PTH, albumin and phosphate in rats, intraperitoneal. The class given is in vivo, rat. As to conditions: rat, i.p. The protocol: Compounds shown to activate the bovine parathyroid cell calcium receptor in vitro were tested for hypocalcemic activity in vivo. […] […] […] Serum total calcium, albumin and phosphate were measured by techniques well known in the art.

For series [4], the target named is T1, parathyroid cell calcium receptor (Bos taurus, UniProt P35384).
T1 sequence (P35384 21-1085 limits assumed): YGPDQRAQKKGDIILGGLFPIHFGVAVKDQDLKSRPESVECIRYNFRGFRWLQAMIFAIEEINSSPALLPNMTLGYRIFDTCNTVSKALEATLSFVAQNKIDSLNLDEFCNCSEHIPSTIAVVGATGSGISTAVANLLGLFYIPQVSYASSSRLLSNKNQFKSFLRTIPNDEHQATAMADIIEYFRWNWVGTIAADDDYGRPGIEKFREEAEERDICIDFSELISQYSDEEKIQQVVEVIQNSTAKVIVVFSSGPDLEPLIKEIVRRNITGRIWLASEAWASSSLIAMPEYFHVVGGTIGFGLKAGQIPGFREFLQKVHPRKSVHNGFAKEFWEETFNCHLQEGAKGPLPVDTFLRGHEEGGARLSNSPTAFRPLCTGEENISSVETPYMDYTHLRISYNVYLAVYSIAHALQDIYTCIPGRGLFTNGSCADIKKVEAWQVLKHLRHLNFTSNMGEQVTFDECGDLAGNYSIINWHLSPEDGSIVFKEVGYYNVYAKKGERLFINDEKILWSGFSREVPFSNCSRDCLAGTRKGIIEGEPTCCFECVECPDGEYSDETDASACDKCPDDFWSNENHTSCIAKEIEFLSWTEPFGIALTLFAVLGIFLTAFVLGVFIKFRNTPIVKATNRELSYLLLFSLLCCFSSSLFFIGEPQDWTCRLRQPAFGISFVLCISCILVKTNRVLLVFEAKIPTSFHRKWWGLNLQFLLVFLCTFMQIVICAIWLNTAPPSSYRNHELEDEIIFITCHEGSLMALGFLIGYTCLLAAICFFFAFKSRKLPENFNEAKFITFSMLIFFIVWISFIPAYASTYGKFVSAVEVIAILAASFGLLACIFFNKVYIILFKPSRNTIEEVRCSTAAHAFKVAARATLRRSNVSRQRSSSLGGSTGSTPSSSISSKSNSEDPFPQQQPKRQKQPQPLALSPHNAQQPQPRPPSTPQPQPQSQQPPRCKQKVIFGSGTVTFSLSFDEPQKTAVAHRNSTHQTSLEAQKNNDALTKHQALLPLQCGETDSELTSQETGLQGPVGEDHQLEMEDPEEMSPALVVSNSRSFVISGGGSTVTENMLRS
The experiment in a line: cell-based. The class given is cell-based. The following applies: for potentiation of mobilization of intracellular Ca^2+ elicited by extracellular divalent cations / change in [Ca^2+]i at low extracellular Ca^2+ / increase in [Ca^2+]i at intermediate extracellular Ca^2+: 100 μM; for change in [Ca^2+]i at low extracellular Ca^2+: 0.5 mM extracellular Ca^2+; for increase in [Ca^2+]i at intermediate extracellular Ca^2+: 1-[…] extracellular Ca^2+.

Series [5] has as its system Ca^2+ influx in parathyroid cells. The series can be described thus: influx of extracellular Ca^2+ in bovine parathyroid cells. The class given is cell-based. As to conditions: for [Ca^2+]i: 100 to 1000 μM, 2 mM CaCl2; for effect on increases in [Ca^2+]i elicited by extracellular Ca^2+: pretreatment.
The next series can be described thus: net positive charge. The class given is physicochemical. As to conditions: Table 1; at physiological pH.
In series [6] the target is T2, bovine parathyroid cell calcium receptor (Bos taurus, UniProt P35384).
T2 construct: expressed in transfected cells; host or cells: Xenopus laevis oocytes injected with cRNA from BoPCaR 1
T2 sequence (P35384 21-1085 limits assumed): T1 sequence (P35384 21-1085 limits assumed)
The series can be described thus: Cl^- current in Xenopus oocytes expressing BoPCaR 1. The class given is cell-based. The following applies: 1 mM extracellular Ca^2+. As to the method:
These responses are mediated by the following series of biochemical events:
Xenopus oocytes were injected with BoPCaR 1, the 5.3 Kb cDNA encoding a bovine parathyroid cell calcium receptor as described in Example 25. After two to three days, Cl^- currents were examined in the oocytes using a two-electrode voltage clamp.
Xenopus oocytes were injected with BoPCaR 1 as described in Example 25. After two to three days, Cl^- currents were examined in the oocytes using two electrode voltage clamp.

The target in series [7] is T1, parathyroid cell calcium receptor. The series can be described thus: block of extracellular Ca^2+-evoked increases in [Ca^2+]i in bovine parathyroid cells (calcilytic). The class given is cell-based.
A further series relates to bovine parathyroid cells. The series can be described thus: PTH secretion from bovine parathyroid cells. The class given is cell-based.
Series [8] has as its target T3, parathyroid cell calcium receptor (Homo sapiens, UniProt P41180).
T3 construct: Dissociated parathyroid cells were prepared from a parathyroid adenoma obtained by surgery from a patient with primary hyperparathyroidism; endogenous in cells; host or cells: primary dissociated human parathyroid cells (adenoma or hyperplastic tissue from surgery)
T3 sequence (P41180 20-1078): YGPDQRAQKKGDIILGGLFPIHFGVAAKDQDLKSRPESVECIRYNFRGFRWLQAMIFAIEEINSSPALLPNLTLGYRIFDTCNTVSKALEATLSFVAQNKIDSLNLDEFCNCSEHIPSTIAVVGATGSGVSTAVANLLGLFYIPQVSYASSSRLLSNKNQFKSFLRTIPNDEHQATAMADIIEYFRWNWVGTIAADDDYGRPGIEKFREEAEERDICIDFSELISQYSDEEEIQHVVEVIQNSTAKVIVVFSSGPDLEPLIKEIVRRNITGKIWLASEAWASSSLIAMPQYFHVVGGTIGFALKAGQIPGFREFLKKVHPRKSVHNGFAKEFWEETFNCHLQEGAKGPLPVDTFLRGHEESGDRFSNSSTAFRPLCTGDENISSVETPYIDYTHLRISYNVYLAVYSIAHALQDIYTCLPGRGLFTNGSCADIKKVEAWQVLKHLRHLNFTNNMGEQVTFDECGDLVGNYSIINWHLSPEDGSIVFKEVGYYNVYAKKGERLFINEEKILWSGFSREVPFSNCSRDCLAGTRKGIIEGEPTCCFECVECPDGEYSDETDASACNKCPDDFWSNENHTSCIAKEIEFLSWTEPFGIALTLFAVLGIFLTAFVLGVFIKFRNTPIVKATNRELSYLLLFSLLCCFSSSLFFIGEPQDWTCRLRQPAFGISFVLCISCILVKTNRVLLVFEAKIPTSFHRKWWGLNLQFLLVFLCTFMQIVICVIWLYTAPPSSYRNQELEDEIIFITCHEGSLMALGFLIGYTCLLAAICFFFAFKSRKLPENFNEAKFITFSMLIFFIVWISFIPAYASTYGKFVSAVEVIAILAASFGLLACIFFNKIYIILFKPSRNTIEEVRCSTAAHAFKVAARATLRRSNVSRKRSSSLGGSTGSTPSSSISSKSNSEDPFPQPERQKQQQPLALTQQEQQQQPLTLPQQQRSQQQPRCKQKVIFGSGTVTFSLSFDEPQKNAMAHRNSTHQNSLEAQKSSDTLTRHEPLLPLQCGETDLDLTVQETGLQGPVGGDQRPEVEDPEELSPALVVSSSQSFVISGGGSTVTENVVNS
The experiment in a line: [Ca^2+]i (fura-2) in human parathyroid cells. The following applies: 1 μM. The class given is cell-based.
Procedure: This section describes procedures used to obtain and treat parathyroid cells from calves and humans. […] Human parathyroid glands, were obtained from patients undergoing surgical removal of parathyroid tissue for primary or uremic hyperparathyroidism (uremic HPT), and were treated similarly to bovine tissue.
Dissociated parathyroid cells were prepared from a parathyroid adenoma obtained by surgery from a patient with primary hyperparathyroidism.

By EC50 is commonly meant the concentration at which the effect is half-maximal. For `CC(NCCCc1ccccc1)c1ccc(Cl)cc1` (racemic) [Compound 1H], the EC50 in [1] (Table 6, rat osteoclasts) is 250 µM.
Take `CC(NCCC(c1ccccc1)c1ccccc1)c1ccccc1` (racemic) [Fendiline, reference compound]: in series [2], the “Cl^- current in oocytes” value is reported as “oscillatory increases”.
On to `COc1cccc(C(C)NCCCc2ccccc2)c1` (racemic) [NPS 467], for which, in series [3], the “reduction in serum or whole blood Ca^2+” value is recorded as “dose-dependent reduction in serum or whole blood Ca^2+” and the “time to return toward control levels” value was determined as 24 h. Also, the “change in serum albumin or phosphate” value in series [3] (all doses) is given as “no change in serum albumin or phosphate levels”. Besides, the “circulating PTH” value in series [3] (preliminary studies) is reported as “dose-dependent reduction in circulating levels of PTH”.
As to `COc1ccc(CCN(C)CCCC(C#N)(c2cc(OC)c(OC)c(OC)c2)C(C)C)cc1OC` [Compound D-600, reference compound], in series [4], the “potentiation of mobilization of intracellular Ca^2+ elicited by extracellular divalent cations” value is “potentiated the mobilization”; the “change in [Ca^2+]i at low extracellular Ca^2+” value was “evoked no change in [Ca^2+ ]i”; the “increase in [Ca^2+]i at intermediate extracellular Ca^2+” value was “small, but robust increase”. In addition, the “block of influx of extracellular Ca^2+” value in series [5] (100 μM) is “blocked the influx”.
As to `NCCCCCCCCCCCCN` [DADD, 1,12-diaminododecane], in “net positive charge”, the “Net (+) Charge” value is “+2”. For the same compound, in [5], the “[Ca^2+]i” value is “prompt fall in [Ca^2+ ]i” and the “effect on increases in [Ca^2+]i elicited by extracellular Ca^2+” value is “depresses steady-state, but not transient increases in [Ca^2+ ]i”.
Regarding `NCCCNCCCCNCCCNCCCN(O)CCCNC(=O)Cc1c[nH]c2ccccc12` [NPS 017, reference compound], in series [6], the “Cl^- current” value is “oscillatory increases in the Cl^- current”.
One may read the IC50 as the concentration that gives 50% inhibition. On to `NCCCCCCCCCCCCNC(=O)Cc1ccc(O)cc1O` [NPS 021], for which the “change in [Ca^2+]i by the compound itself” value in series [7] (0.5 mM extracellular Ca^2+) is “does not by itself cause any change in [Ca^2+ ]i”. Besides, the IC50 in series [7] (bovine parathyroid cells) is approximately 200 µM. In addition, the IC100 in [7] (read-out: concentration abolishing the increase in [Ca^2+]i evoked by extracellular Ca^2+) was approximately 500 µM.
With `COc1ccc(CC(=O)NCCCCCCCCCCCCN)cc1OC` [NPS 384], in [4] (300 μM), the “increase in [Ca^2+]i” value is “did not evoke an increase in [Ca^2+ ]i” and the “potentiation of transient increases in [Ca^2+]i” value is reported as “fails to do so”. The “block of influx of extracellular Ca^2+” value in series [5] (300 μM) is given as “blocked influx of extracellular Ca^2+”. Further, in series [5], the “[Ca^2+]i” value was “prompt fall in [Ca^2+ ]i” and the “effect on increases in [Ca^2+]i elicited by extracellular Ca^2+” value was “depresses steady-state, but not transient increases in [Ca^2+ ]i”.
On to `NCCCCNCCCN` [Spermidine], for which, in series [1] (osteoclasts, 1000 µM), the “increase in [Ca^2+]i relative to maximal extracellular Ca^2+” value is given as “about 10%”. Moreover, in the series “net positive charge”, the “Net (+) Charge” value is given as “+3”.
In the case of `NCCCNCCCCNCCCN` [Spermine], the “inhibition of PTH secretion” value in the series on bovine parathyroid cells is given as “inhibited PTH secretion to the same extent as extracellular Ca^2+”.
For `CCN(CC)CCCCCCCCOC(=O)c1cc(OC)c(OC)c(OC)c1` [TMB-8, reference compound], in series [4], the “potentiation of mobilization of intracellular Ca^2+ elicited by extracellular divalent cations” value was “potentiated the mobilization; also recorded: potentiated transient increases in [Ca^2+ ]i”; the “change in [Ca^2+]i at low extracellular Ca^2+” value is “evoked no change in [Ca^2+ ]i”; the “increase in [Ca^2+]i at intermediate extracellular Ca^2+” value is “small, but robust increase”. Also, the “block of influx of extracellular Ca^2+” value in series [5] (100 μM) is recorded as “blocked the influx”.
With `COCCOC(=O)C1=C(C)NC(C)=C(C(=O)OC(C)C)C1c1cccc([N+](=O)[O-])c1` (stereo not drawn) [nimodipine], the “effect on sustained increases in [Ca^2+]i elicited by extracellular Mg^2+” value in [8] is “not affected by nimodipine”.
